Source: patent publication US12102638B2 (Urovant Sciences GmbH, priority 2017, dated 2024)
Read-outs that look alike come from different tables or passages of the source.

Legend:
healthy subjects [1] = test: thorough QT single oral dose study; assay type: in vivo, human; settings: for QTcF LS mean difference from placebo / QTcF change from baseline, LS mean: single 400 mg
[2] = test system: patients with overactive bladder
Description: A placebo group was included in the main study, and a group that received tolterodine monotherapy was included in the main study and in the extension.

patients with OAB = test: Phase 2b vital sign changes (HR, SBP, DBP); assay type: in vivo, human
Description: None led to discontinuation. The overall incidence of orthostatic symptoms was low.
Small differences in the percent of subjects exceeding categorical heart rate and blood pressure thresholds for vibegron were similar to those in the tolterodine arm.

healthy subjects [3] = test: maximum MA4 heart rate in multiple-dose Phase 1 study; assay type: in vivo, human; settings: Day 14
Protocol: More intensive assessments of heart rate and blood pressure were performed in healthy volunteers in several Phase 1 studies. […] Doses ranged from 25 to 400 mg once daily for 7 to 28 days depending on the cohort. Least squares mean and 90% confidence intervals of maximum change from baseline in moving average of heart rate over 4 hours postdose (MA4 HR) are presented in Table 17.

[4] = dose-Cmax and dose-AUC models / log-log regression and simulations from Phase 1 data; set-up: species or system human
Protocol: In order to contextualize PK parameters of a 75 mg dose, dose-Cmax and dose-AUC models were created using data from Phase 1 studies.

[5] = human, in vivo
healthy subjects [6] = test system: healthy subjects
Description: Safety data from 16 Phase 1 studies, which include 15 completed Phase 1 studies and 1 study that was terminated early (this study was terminated for reasons unrelated to efficacy or safety) was collected.

[7] = in vivo

**Q.** For O=C(Nc1ccc(C[C@@H]2CC[C@H]([C@H](O)c3ccccc3)N2)cc1)[C@@H]1CCc2nccc(=O)n21 [vibegron, (6S)—N-[4-[[(2S,5R)-5-[(R)-hydroxy(phenyl)methyl]pyrrolidin-2-yl]methyl]phenyl]-4-oxo-7,8-dihydro-6H-pyrrolo[1,2-a]pyrimidine-6-carboxamide], which “QTcF LS mean difference from placebo” value (healthy subjects [1]; 10 hour) is on record?
**A.** -4.14 ms

**Q.** What about the “QTcF change from baseline, LS mean” value (healthy subjects [1]; 10 hour) of the same compound?
**A.** -10.29 ms

**Q.** And the “QTcF LS mean difference from placebo” value (healthy subjects [1]; 12 hour)?
**A.** -4.00 ms

**Q.** What about the “QTcF change from baseline, LS mean” value (healthy subjects [1]; 12 hour) of the same compound?
**A.** -7.10 ms

**Q.** And the “QTcF LS mean difference from placebo” value (healthy subjects [1]; 23.5 hour)?
**A.** -0.34 ms

**Q.** What about the “QTcF change from baseline, LS mean” value (healthy subjects [1]; 23.5 hour) of the same compound?
**A.** -2.87 ms

**Q.** And the “effect on QTc or blood pressure” value (healthy subjects [1]; thorough QT study)?
**A.** no clinically meaningful effect on QTc or blood pressure

**Q.** And the “Accidental overdose, %” value ([2]; Vibegron 3 mg, N = 144, first 12 weeks)?
**A.** (2.1) %

**Q.** And the “Accidental overdose, %” value ([2]; Vibegron 15 mg, N = 134, first 12 weeks)?
**A.** (4.5) %

**Q.** What about the “Accidental overdose, %” value ([2]; Vibegron 50 mg, N = 148, first 12 weeks) of the same compound?
**A.** (2.7) %

**Q.** And the “Accidental overdose, %” value ([2]; Vibegron 100 mg, N = 261, first 12 weeks)?
**A.** (4.2) %

**Q.** And the frequency of injuries ([2]; human, in vivo)?
**A.** 0.9%

**Q.** And the “SBP and DBP mean changes at Week 1 and mean maximum changes over 8 weeks, difference between placebo and vibegron” value (patients with OAB; 50 mg and 100 mg)?
**A.** < 1 mm Hg

**Q.** And the “percent of subjects with a change from baseline in DBP >15 mmHg” value (patients with OAB; 100 mg)?
**A.** 1.3%

**Q.** And the “HR mean maximum changes over 8 weeks, difference to placebo” value (patients with OAB; in vivo)?
**A.** < 2 bpm

**Q.** And the “DBP change from baseline, mean (95% CI) Max, week 1 to 8” value (“DBP change … (95% CI) Max, week 1 to 8” for short) (patients with OAB; vibegron 3 mg)?
**A.** 5.03 (3.92, 6.15) mm Hg

**Q.** And the “DBP change from baseline, mean (95% CI), week 1” value (“DBP change … (95% CI), week 1” below) (patients with OAB; vibegron 3 mg)?
**A.** −0.37 (−1.69, 0.95) mm Hg

**Q.** What about the “HR change from baseline, mean (95% CI) maximum, week 1 to 8” value (from here on “HR change … (95% CI) maximum, week 1 to 8”) (patients with OAB; vibegron 3 mg) of the same compound?
**A.** 5.57 (4.25, 6.90) bpm

**Q.** What about the “HR change from baseline, mean (95% CI), week 1” value (shortened to “HR change … (95% CI), week 1”) (patients with OAB; vibegron 3 mg) of the same compound?
**A.** 0.36 (−0.90, 1.62) bpm

**Q.** What about the “SBP change from baseline, mean (95% CI) maximum, week 1 to 8” value (shortened to “SBP change … (95% CI) maximum, week 1 to 8”) (patients with OAB; vibegron 3 mg) of the same compound?
**A.** 7.14 (5.18, 9.10) mm Hg

**Q.** And the “SBP change from baseline, mean (95% CI), week 1” value (“SBP change … (95% CI), week 1” for short) (patients with OAB; vibegron 3 mg)?
**A.** −0.35 (−2.34, 1.65) mm Hg

**Q.** What about the “DBP change … (95% CI) Max, week 1 to 8” value (patients with OAB; vibegron 15 mg) of the same compound?
**A.** 6.37 (5.20, 7.53) mm Hg

**Q.** And the “DBP change … (95% CI), week 1” value (patients with OAB; vibegron 15 mg)?
**A.** 0.03 (−1.52, 1.59) mm Hg

**Q.** And the “HR change … (95% CI) maximum, week 1 to 8” value (patients with OAB; vibegron 15 mg)?
**A.** 6.56 (5.20, 7.92) bpm

**Q.** What about the “HR change … (95% CI), week 1” value (patients with OAB; vibegron 15 mg) of the same compound?
**A.** 0.35 (−1.15, 1.85) bpm

**Q.** What about the “SBP change … (95% CI) maximum, week 1 to 8” value (patients with OAB; vibegron 15 mg) of the same compound?
**A.** 8.93 (7.18, 10.67) mm Hg

**Q.** And the “SBP change … (95% CI), week 1” value (patients with OAB; vibegron 15 mg)?
**A.** −0.34 (−2.46, 1.78) mm Hg

**Q.** What about the “DBP change … (95% CI) Max, week 1 to 8” value (patients with OAB; vibegron 50 mg) of the same compound?
**A.** 4.19 (3.10, 5.29) mm Hg

**Q.** And the “DBP change … (95% CI), week 1” value (patients with OAB; vibegron 50 mg)?
**A.** −0.70 (−2.07, 0.67) mm Hg

**Q.** And the “HR change … (95% CI) maximum, week 1 to 8” value (patients with OAB; vibegron 50 mg)?
**A.** 5.49 (4.28, 6.69) bpm

**Q.** And the “HR change … (95% CI), week 1” value (patients with OAB; vibegron 50 mg)?
**A.** 0.29 (−0.88, 1.46) bpm

**Q.** And the “SBP change … (95% CI) maximum, week 1 to 8” value (patients with OAB; vibegron 50 mg)?
**A.** 7.01 (5.31, 8.70) mm Hg

**Q.** What about the “SBP change … (95% CI), week 1” value (patients with OAB; vibegron 50 mg) of the same compound?
**A.** −0.79 (−2.65, 1.08) mm Hg

**Q.** And the “DBP change … (95% CI) Max, week 1 to 8” value (patients with OAB; vibegron 100 mg)?
**A.** 4.80 (3.88, 5.72) mm Hg

**Q.** What about the “DBP change … (95% CI), week 1” value (patients with OAB; vibegron 100 mg) of the same compound?
**A.** −0.69 (−1.72, 0.34) mm Hg

**Q.** What about the “HR change … (95% CI) maximum, week 1 to 8” value (patients with OAB; vibegron 100 mg) of the same compound?
**A.** 6.12 (5.10, 7.15) bpm

**Q.** And the “HR change … (95% CI), week 1” value (patients with OAB; vibegron 100 mg)?
**A.** 0.35 (−0.69, 1.38) bpm

**Q.** And the “SBP change … (95% CI) maximum, week 1 to 8” value (patients with OAB; vibegron 100 mg)?
**A.** 6.51 (5.09, 7.93) mm Hg

**Q.** What about the “SBP change … (95% CI), week 1” value (patients with OAB; vibegron 100 mg) of the same compound?
**A.** −0.77 (−2.22, 0.68) mm Hg

**Q.** And the “Maximum MA4 HR change from baseline, LS mean” value (shortened to “Maximum MA4 HR change”) (healthy subjects [3]; 25 mg once daily)?
**A.** 1.47 bpm

**Q.** What about the “Maximum MA4 HR, Difference from Placebo” value (healthy subjects [3]; 25 mg once daily) of the same compound?
**A.** −1.60 bpm

**Q.** And the “Maximum MA4 HR change” value (healthy subjects [3]; 50 mg once daily)?
**A.** 1.50 bpm

**Q.** What about the “Maximum MA4 HR, Difference from Placebo” value (healthy subjects [3]; 50 mg once daily) of the same compound?
**A.** −1.57 bpm

**Q.** And the “Maximum MA4 HR change” value (healthy subjects [3]; 100 mg once daily)?
**A.** 3.28 bpm

**Q.** And the “Maximum MA4 HR change” value (healthy subjects [3]; 150 mg once daily)?
**A.** 3.17 bpm

**Q.** And the “Maximum MA4 HR, Difference from Placebo” value (healthy subjects [3]; 150 mg once daily)?
**A.** 0.10 bpm

**Q.** And the “Maximum MA4 HR change” value (healthy subjects [3]; 200 mg once daily)?
**A.** 5.67 bpm

**Q.** And the “Maximum MA4 HR, Difference from Placebo” value (healthy subjects [3]; 200 mg once daily)?
**A.** 2.60 bpm

**Q.** What about the “Maximum MA4 HR change” value (healthy subjects [3]; 300 mg once daily) of the same compound?
**A.** 9.06 bpm

**Q.** What about the “Maximum MA4 HR, Difference from Placebo” value (healthy subjects [3]; 300 mg once daily) of the same compound?
**A.** 5.98 bpm

**Q.** What about the “Maximum MA4 HR change” value (healthy subjects [3]; 400 mg once daily) of the same compound?
**A.** 10.33 bpm

**Q.** What about the “Maximum MA4 HR, Difference from Placebo” value (healthy subjects [3]; 400 mg once daily) of the same compound?
**A.** 7.26 bpm

**Q.** What about the “AUC of 75 mg lower than 200 mg single dose” value [4] of the same compound?
**A.** ~2 fold

**Q.** And the “AUC of 75 mg lower than 400 mg single dose” value [4]?
**A.** ~6 fold

**Q.** What about the “Cmax of 75 mg lower than 200 mg single dose” value [4] of the same compound?
**A.** approximately 3.3 fold

**Q.** What about the “Cmax of 75 mg lower than 400 mg single dose” value [4] of the same compound?
**A.** ~9.2 fold

**Q.** What about the “increase in Cmax on increase in dose from 50 to 100 mg” value [4] of the same compound?
**A.** ~3 fold

**Q.** What about the “reduction in Cmax on decreasing the dose from 100 mg to 75 mg” value [4] of the same compound?
**A.** ~40%

**Q.** What about the “dose recovered in feces” value [5] of the same compound?
**A.** approximately 59%

**Q.** And the “dose recovered in urine” value [5]?
**A.** ~20%

**Q.** And the “postural dizziness, dose relation” value (healthy subjects [6]; Phase 1 multiple dose studies)?
**A.** appeared to increase at doses ≥100 mg

**Q.** What about the “treatment-emergent serious adverse events (SAEs) or deaths” value (healthy subjects [6]; Phase 1 program) of the same compound?
**A.** no treatment-emergent serious adverse events (SAEs) or deaths reported

**Q.** And the “incidence of AE orthostatic hypotension with symptoms, dose relation” value (healthy subjects [6]; Phase 1 studies)?
**A.** higher at vibegron doses greater than 150 mg

**Q.** What about the “laboratory safety parameters and ECG parameters” value (healthy subjects [6]; preliminary Phase 1 safety data) of the same compound?
**A.** no clinically meaningful changes

**Q.** And the “tolerability across the Phase 1 program” value (healthy subjects [6]; single doses 2 to 600 mg, multiple doses 25 to 400 mg up to 28 days)?
**A.** generally well tolerated

**Q.** And the “orthostatic AEs on coadministration with metoprolol or amlodipine” value (healthy subjects [6]; vibegron 100 mg, subjects with essential hypertension)?
**A.** no occurrences of orthostatic AEs

**Q.** And the “severe TEAEs, SAEs or deaths” value [7]?
**A.** no severe TEAEs, SAEs or deaths
